The values that follow come from patent US20110224276A1, “OPTICAL ISOMER OF PHENYLPROPIONIC ACID AND ITS MEDICINAL USE” (priority 2008, published 2011).

Series [1] deals with ICR mice. Briefly: in vivo. The note with it: LD50 ig compared with S. The source says: (§1) Each tested group includes 5 dose-groups during the tests as follows:
(§2) Intragastric administration (ig)
(§3) (3) Observed periods: 14 days

Series [2] is described as follows: in vivo. The note with it: mouse, in vivo, po.
Excerpt: as §1, §2, §3

For series [3], the system named is auricle tumefaction of mice caused by xylene. Briefly: auricle tumefaction of mice caused by xylene. The format is in vivo. The note with it: 3 h after xylene. As to the method: 90 healthy Kunming species of Mus musculus albus are selected, male, weight 18˜22 g, totally 9 tested groups, and each group of 10 mice, said tested groups comprising:
At 0.5 h before modeling, groups (8) and (9) are administrated tested drugs, and other groups are administrated tested drugs at 1 h before modeling. During modeling, the right ears of mice are coated with xylene at concentration of 30 μl/per ear to inflame the ear, and the left ears are performed no treatment. Once 3 h after coating xylene, the animals are sacrificed, and two ears of each mouse are cut, and ear wafers are obtained by making holes at the same positions of ears with puncher with diameter of 8 mm, and then are weighted via an electronic balance.
The tumefaction degree refers to the weight difference of the weight of inflamed ear wafer minus non-inflamed ear wafer. The tumefaction rate tumefaction degree/the weight of normal ear wafer×100‰ The average value of the tumefaction degree and tumefaction rate of each tested group is compared, so as to obtain the ability of anti-inflammation of each tested drug.
Using Microsoft EXCEL software, the average value of tumefaction degree of each tested group and the average value of control group are analyzed by means of t-test, and P<0.05 is considered as statistically significant difference.

Series [4] can be described thus: in vivo. The settings on record: mouse, in vivo, ip.
Excerpt: as §1
Intraperitoneal injection (ip)
(3) Observed periods: 14 days.

In series [5] the test system is writhing in mice induced by acetic acid. Briefly: writhing in mice induced by acetic acid. The format is in vivo. The note with it: for ED50: Mus musculus, read-out: ED50 (mg/kg) of inhibition of writhing; for maximum inhibitory rate (%) on mouse writhing: ig 1 h before 0.6% acetic acid ip, maximum of three dose groups (30, 10, 3 mg/kg; R 90, 30, 10 mg/kg), n=10.
Protocol: For each group, the required weights of drugs are weighted, and are milled with 0.5% CMC—Na to required concentration ready-for-use.
Each group of animals is fasted for 12 h, but drinking ad libitum. At 1 hour after intragastric administration of corresponding drugs, 0.6% acetic acid (0.2 ml/per) is intraperitoneally injected, and the number of writhing of mice in 15 min after injection are recored. The mice with waist muscle repeat shrinkage, bump back, rump torsion and posterior limb stretch are used as writhing positive animals. Inhibition rates of drugs on writhing are calculated based on the following formula:
Inhibition rate (%)=[(number of writhing of the control group−number of writhing of administrated group)/number of writhing of the control group]×100%
Inhibition rate of each dose-group on writhing (%) is obtained by means of above method. Fitting data of dosage (mg/kg) and corresponding inhibition rate (%) via Microsoft EXCEL software to get a trendline, so as to obtain the half-effective inhibiting dose (ED50) of each tested group on writhing.
The subject of series [6] is SD rats. Briefly: toxicity test in SD rats, four-week consecutive intragastric administration. The note with it: for animals dead during 4 weeks administration: 10 rats per group; for nontoxic dosage: four-week consecutive intragastric administration. The procedure:
2. […] The tested samples are formulated into suspensions by milling with 0.5% CMC—Na; intragastric administration every day (10 ml/kg) for consecutive 4 weeks; on each day, after administration, the general conditions of the animals are observed, and weight and amount of ingestion are determined once every week. In 24 hours after the last administration, the rats are fasted overnight, blood samples are withdrawn via femoral arteries, and the rats are dissected, and the indexes of blood cytology and biochemics, gloss anatomy and histopathological examination are preformed.

Series [7] has as its system hot plate pain threshold of mice. Briefly: hot plate pain threshold of mice. Format: in vivo. The note with it: for pain threshold(s) 0 h: 0 h (base threshold before administration); for pain threshold(s) 0.5 h: 0.5 h after administration; for pain threshold(s) 1 h: 1 h after administration. The procedure: On the basis of preliminary test, 90 healthy Kunming species of Mus musculus albus are selected, female, weight 18˜22 g, […], and each group of 10 mice, said tested groups comprising:
Each group of animals is pasted for 12 h, but drinking ad libitum. Mice are placed on a homoiothermal hot plate (55±0.5[…]), and the time of occurrence of licking foot is recorded as pain threshold. Appropriate mice (whose reaction time of pain is less than 60 seconds) are selected and randomly divided into groups, and pain thresholds are measured twice before administration and the average value is used as base pain threshold. At 0.5 h and 1 hour after intragastric administration of corresponding drugs, the pain threshold of each mouse is measured (if there are no reaction of pain in 60 seconds, then the threshold is considered as 60 second).
Using Microsoft EXCEL software, the average value of pain threshold of each tested group and the average value of control group are performed t-test analysis, and P<0.05 is considered as statistically significant difference.

Series [8] concerns SD rats. Briefly: long-term toxicity test in SD rats, thirteen-week consecutive intragastric administration and four-week convalescence. The note with it: for nontoxic dosage: 13-week consecutive intragastric administration. As to the method:
2. […] The tested samples are formulated into suspensions by milling with 0.5% CMC—Na; intragastric administration (10 ml/kg) every day for consecutive 13 weeks; on each day, after administration, the general conditions of the animals are observed, and weight and amount of ingestion are determined once every week. In 24 hours after the last administration, half of rats in each tested group are fasted overnight, blood samples are withdrawn via femoral arteries, and the rats are dissected, and the indexes of blood cytology and biochemics, gloss anatomy and histopathological examination are preformed. The administration to remaining half rats is stopped, and the convalescence is observed; general conditions are observed and weight and amount of ingestion are determined once every week. After 4 weeks, the observation is complete, and the half of rats in each tested group are fasted overnight, blood samples are withdrawn via femoral arteries, and the rats are dissected, and the indexes of blood cytology and biochemics, gloss anatomy and histopathological examination are preformed.

Series [9] addresses T1, Cox-2 (Homo sapiens, UniProt P35354).
T1 construct: purchased Cayman, USA
T1 sequence (P35354 18-604): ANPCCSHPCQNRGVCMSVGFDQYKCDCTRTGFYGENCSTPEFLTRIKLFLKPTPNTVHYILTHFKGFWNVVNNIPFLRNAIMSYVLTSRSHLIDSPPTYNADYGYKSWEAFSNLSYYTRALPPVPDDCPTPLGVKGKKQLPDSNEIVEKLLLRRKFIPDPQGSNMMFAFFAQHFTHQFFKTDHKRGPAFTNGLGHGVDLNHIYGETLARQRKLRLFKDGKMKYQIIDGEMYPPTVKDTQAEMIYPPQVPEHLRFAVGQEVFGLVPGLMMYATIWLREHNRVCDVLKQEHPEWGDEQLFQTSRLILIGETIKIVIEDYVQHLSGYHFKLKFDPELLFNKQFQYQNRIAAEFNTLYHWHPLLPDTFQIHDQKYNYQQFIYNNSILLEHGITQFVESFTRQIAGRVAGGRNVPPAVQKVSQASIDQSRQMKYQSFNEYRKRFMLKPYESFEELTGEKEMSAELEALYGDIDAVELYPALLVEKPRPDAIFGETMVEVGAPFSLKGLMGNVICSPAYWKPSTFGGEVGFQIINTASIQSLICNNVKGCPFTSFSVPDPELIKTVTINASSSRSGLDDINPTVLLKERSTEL
Briefly: inhibiting activity to COX-2 (TMPD colorimetric, 590 nm). The format is biochemical. The settings on record: tested at 300, 100, 30, 10 μmol/L (positive control 100, 30, 10, 3). The procedure: 2.5.1 The Inhibiting Activity to COX-1/COX-2
(1) In 220 ul of reaction system, mixed buffer (1×), heme, COX-1/COX-2, and the compound to be tested, are sequentially added, and are incubated for 5 minutes at 25° C.;
(2) Adding chromogenic substrate (TMPD) and arachidonic acid;
(3) Carefully shaking the plate for several seconds, then incubating for 15 minutes at 25° C.;
(4) Detecting absorption value at 590 nm.
Fitting data of concentration (μmol/L) and corresponding inhibition rate (%) via Microsoft EXCEL software to get a trendline, so as to obtain the half-effective inhibiting concentration (IC50) of each tested enzyme.

On to `CC(C(=O)O)c1ccc2c(c1)CC(=O)c1ccccc1S2` (racemic) [RS, 10,11-dihydro-alpha-methyl-10-oxo-dibenzo[b,f]tiazem-2-acetic acid, reference compound], for which the “Com. Vs. S (multiple)” value in [1] is 1.2 multiple. Also, the figures for the LD50 at 14 days in series [2] and in series [4] were 327 ± 30.7 mg/kg and 252 ± 18.9 mg/kg, respectively. For the same compound, the “tumefaction degree” value in [3] (10 mg/kg ig) was found to be 5.2 ± 2.9 mg; in series [3] (20 mg/kg ig), 3.7 ± 2.5 mg. The ED50 in series [5] turned out to be 9.2 mg/kg. The “maximum inhibitory rate (%) on mouse writhing” value (from here on “maximum inhibitory rate (%)”) in series [5] was 63.6%. In addition, the “animals dead during 4 weeks administration” value in [6] (80 mg/kg ig daily) was determined as 2 animals. Further, the gastrointestinal tract toxicity entry in series [6] (four-week ig, rats, S 80, 40, RS 80, R 480, 240, 120, R:S=6:1 320, 160, 80 mg/kg) was “produces significant gastrointestinal tract toxicity”; in series [8] (13-week ig, rats, S 50, 25, RS 50, R 400, 200, 100, R:S=6:1 200, 100, 50 mg/kg), “produces significant gastrointestinal tract toxicity”. For the same compound, the nontoxic dosage in [6] (rats) amounted to 40 mg/kg; in series [8] (rats) it was 25 mg/kg. For the same compound, the “pain threshold(s) 0 h” value is on record as 12.8 ± 3.7 s in series [7] (40 mg/kg ig) and 12.7 ± 3.1 s in series [7] (80 mg/kg ig). In addition, the results for the “pain threshold(s) 0.5 h” value in series [7] (40 mg/kg ig) and in [7] (80 mg/kg ig) were 9.9 ± 2.7 s and 11.7 ± 5.2 s, respectively. For the same compound, the figures for the “pain threshold(s) 1 h” value in series [7] (40 mg/kg ig) and in [7] (80 mg/kg ig) were 10.7 ± 5.7 s and 9.6 ± 3.5 s, respectively. Besides, the “animals dead during thirteen-week administration” value in series [8] (50 mg/kg ig daily, 20 rats per group) amounted to 2 animals. Further, the 50% inhibitory concentration (IC50) (as a rule, the midpoint of a concentration-inhibition curve) in [9] was determined as 7.6 µM.

On to `C[C@H](C(=O)O)c1ccc2c(c1)CC(=O)c1ccccc1S2` [S, S-10,11-dihydro-alpha-methyl-10-oxo-dibenzo[b,f]tiazem-2-acetic acid], for which the “Com. Vs. S (multiple)” value in series [1] turned out to be 1.0 multiple. Besides, the LD50 (as a rule, the dose at which mortality reaches 50%) at 14 days in series [2] (ICR) was determined as 268 ± 22.2 mg/kg; in [4] (ICR), 201 ± 14.3 mg/kg. Further, the “tumefaction degree” value in [3] (10 mg/kg ig) came to 4.9 ± 2.3 mg; in series [3] (20 mg/kg ig) it was 3.1 ± 3.2 mg. Besides, the ED50 in series [5] came out at 8.6 mg/kg. For the same compound, the “maximum inhibitory rate (%)” value in series [5] is 80.1%. The “animals dead during 4 weeks administration” value is “one” in [6] (40 mg/kg ig daily) and “four” in series [6] (80 mg/kg ig daily). Besides, the nontoxic dosage in [6] (rats) was found to be 20 mg/kg; in series [8] (rats) it was 12.5 mg/kg. Also, the “pain threshold(s) 0 h” value in [7] (40 mg/kg ig) was 12.9 ± 5.0 s; in [7] (80 mg/kg ig), 13.6 ± 9.6 s. Also, the “pain threshold(s) 0.5 h” value in series [7] (40 mg/kg ig) was determined as 10.8 ± 2.7 s; in [7] (80 mg/kg ig) it was 12.7 ± 6.9 s. For the same compound, the “pain threshold(s) 1 h” value was found to be 10.6 ± 4.6 s in [7] (40 mg/kg ig) and 7.9 ± 1.8 s in series [7] (80 mg/kg ig). This compound yielded an IC50 in series [9] of 21.6 µM.

As to `C[C@@H](C(=O)O)c1ccc2c(c1)CC(=O)c1ccccc1S2` [R, R-10,11-dihydro-alpha-methyl-10-oxo-dibenzo[b,f]tiazem-2-acetic acid], the “Com. Vs. S (multiple)” value in series [1] was found to be 14.9 multiple. The LD50 at 14 days turned out to be 3990 ± 153 mg/kg in [2] (ICR) and 744 ± 69.8 mg/kg in series [4] (ICR). The “tumefaction degree” value in series [3] (20 mg/kg ip) was found to be 3.5 ± 2.0 mg; in [3] (40 mg/kg ig), 3.8 ± 2.8 mg; in series [3] (40 mg/kg ip), 2.3 ± 1.8 mg; in series [3] (80 mg/kg ig), 2.5 ± 1.4 mg. Besides, the ED50 in series [5] was found to be 25.4 mg/kg. Further, in series [5], the “maximum inhibitory rate (%)” value was 71.3%. Besides, the nontoxic dosage in [6] (rats) was determined as 240 mg/kg; in series [8] (rats), 200 mg/kg. Also, the “pain threshold(s) 0 h” value is given as 17.6 ± 13.8 s in [7] (40 mg/kg ig), 21.5 ± 15.5 s in series [7] (80 mg/kg ig) and 22.0 ± 4.9 s in series [7] (160 mg/kg ig). Also, the “pain threshold(s) 0.5 h” value turned out to be 12.0 ± 7.8 s in series [7] (40 mg/kg ig) and 24.1 ± 15.1 s in [7] (160 mg/kg ig). In addition, the results for the “pain threshold(s) 1 h” value in [7] (80 mg/kg ig) and in series [7] (160 mg/kg ig) were 17.5 ± 12.3 s and 27.3 ± 11.9 s, respectively. In [9], the IC50 is 48.6 µM.
